{"source": "patent US7265260B2", "about": "“Transgenic non-human mammals expressing constitutively activated tyrosine kinase receptors” (Bristol-Myers Squibb Company, priority 2002, dated 2007)", "system": "IGF1R Sal tumor cell line", "assay": "Cytotoxicity assay: inhibition of cell proliferation by [3H]-thymidine incorporation", "assay_type": "cell-based", "conditions": "IGF-1R-Sal, IGF1R Sal (CD8-IGF1R) cell line from transgenic mouse xenograft tumor, 72 h exposure, read-out: Cytotoxicity Assay IC50 (nM) against IGF1R Sal tumor cell line", "procedure": "The proliferative activity of two IGF1R inhibitors in cells was evaluated in vitro against a cell line derived from a xenograft tumor generated in a transgenic mouse, IGF1R Sal (CD8-IGF1R), which was engineered to overexpress the catalytic domain of the human IGF1R. The two IGF1R inhibitors evaluated were a benzimidazole compound as described in WO02/079192 and U.S. application Ser. No. 10/263,448, hereby incorporated by reference, and paclitaxel. Inhibition of cellular proliferation was also determined in a variety of human tumor xenograft cell lines including, Colo205 (colon), Geo (colon), RD1 (rhabdomyosarcoma), H3396 (breast), and MDA PCa2b (prostate). Proliferation was evaluated by incorporation of [^3H]-thymidine into DNA after a 72 hour exposure to reagents. Cells were plated at 1,500 cells/well in 96-well microtiter plates and 24 hours later cells were exposed to a range of drug concentrations. After 72 hours incubation at 37° C., cells were pulsed with 4 μCi/ml [6-^3H] thymidine (Amersham Pharmacia Biotech, UK) for 3 hours, trypsinized, harvested onto UniFilter-96, GF/B plates (PerkinElmer, Boston, Mass.), and scintillation was measured on a TopCount.NXT (Packard, Conn.). Results are expressed as an IC50, which is the drug concentration required to inhibit cell proliferation by 50% to that of untreated control cells.", "data": [{"smiles": "CC(=O)O[C@H]1C(=O)[C@@]2(C)[C@H]([C@H](OC(=O)c3ccccc3)[C@]3(O)C[C@H](OC(=O)[C@H](O)[C@@H](NC(=O)c4ccccc4)c4ccccc4)C(C)=C1C3(C)C)[C@]1(OC(C)=O)CO[C@@H]1C[C@@H]2O", "note": "[paclitaxel]", "values": [{"measurement": "IC50", "result": 2.9, "unit": "nM"}]}]}
